Like-named read-outs stand apart in the source and are kept apart here.
Experiments:
[1] = Cell viability / cytotoxicity assay (PrestoBlue, 72 h); format: cell-based; conditions: human; THP-1 cell line, 72 h, max 200 μM; read-out: CC50
Description: THP-1 cells (American Type Cell Collection, #TIB-202) were acquired in 2019 and stored frozen in liquid nitrogen. The cells were then maintained in RPMI 1640 (Thermo Fisher Scientific, #S31800–022) at 37 °C in a 5% CO2 atmosphere and routinely tested for Mycoplasma contamination by PCR using the primers 5′-[…] and 5′-[…]. To test the toxicity of compounds, 5000 cells were added to 96-well plates with a final volume of 80 μL centrifuged at 400g for 2 min and incubated with 150 ng/mL of phorbol myristate acetate (Merck, #P8139) for 48 h. The medium was replaced, and after 24 h, the compounds were added and tested at decreasing concentrations starting from 200 μM (10 μL/well). After 72 h of incubation, 10 μL of PrestoBlue Cell Viability Reagent (Thermo Fisher Scientific, #A13262) was added per well. After adding the reagent, the cells were incubated for 2 h at 37 °C in a 5% CO2 atmosphere, and fluorescence readings were performed using the SpectraMax M3 reader (excitation at 560 nm and emission at 590 nm).

[2] = target: T1, LbDHODH (Leishmania braziliensis, UniProt E9AI53); test: biochemical; conditions: for IC50: LbDHODH; for inhibition at 100 µM: read-out: enzyme inhibition
Description: To assess the ability of compounds 2a–2i to inhibit LbDHODH via covalent bond formation with Cys^131, we initially screened them at a concentration of 100 μM under two conditions: with and without a 4-h preincubation with the enzyme.
The experiments were performed in a 96-well microplate reader (SpectraMax Plus 384, Molecular Devices, USA), containing the […] of the buffer 60 mM DCIP, 50 mM Tris pH 8.15, 150 mM KCl, 0.1% Triton X-100, 50 μM DHO and 10 μM of LbDHODH at 165 nM. The reaction was monitored every 3 s at 610 nm over a period of 60 s, in triplicate, for the control and each concentration of the inhibitor. All assays were performed without incubation (0h) and with 4-h preincubation of the inhibitor with LbDHODH, using 5% DMSO (v/v) as control. […]. […] The resulting kobs values were plotted as a function of inhibitor concentration, and the data in the initial linear region was fit to determine the slope, which is kinact/KI. All regressions were performed with GraphPad Prism 9.

[3] = target: T1, LbDHODH; test: Kinact/KI determination from LbDHODH progress curves (kobs vs inhibitor concentration); format: biochemical
Description: The Kinact/Ki ratio is a key parameter for evaluating the potency of covalent inhibitors, as it quantitatively measures both their reactivity and affinity for the target enzyme. This parameter integrates two crucial aspects: KI, which reflects the inhibitor’s binding affinity, and Kinact, which describes the rate at which the covalent bond is formed. […] Therefore, this ratio is essential for ranking covalent inhibitors, optimizing their potency, and guiding structure-based drug design.
The experiments were performed in a 96-well microplate reader (SpectraMax Plus 384, Molecular Devices, USA), containing the […] of the buffer 60 mM DCIP, 50 mM Tris pH 8.15, 150 mM KCl, 0.1% Triton X-100, 50 μM DHO and 10 μM of LbDHODH at 165 nM. The reaction was monitored every 3 s at 610 nm over a period of 60 s, in triplicate, for the control and each concentration of the inhibitor. All assays were performed without incubation (0h) and with 4-h preincubation of the inhibitor with LbDHODH, using 5% DMSO (v/v) as control. […] To determine the IC50 values, the activity percentage data were fitted as a function of the concentration logarithm by nonlinear regression analysis (variable hillslope) using Prism 9.0 software (GraphPad Software, USA). […] The resulting kobs values were plotted as a function of inhibitor concentration, and the data in the initial linear region was fit to determine the slope, which is kinact/KI. All regressions were performed with GraphPad Prism 9.

[4] = target: T2, HsDHODH (Homo sapiens, UniProt Q02127); test: Selectivity assay: HsDHODH single-dose inhibition (DCIP reduction); format: biochemical
T2 construct: made in house
Description: […]. This finding highlights the potential of barbituric acid derivatives as selective inhibitors of LbDHODH.
Human DHODH expression and purification were conducted following a protocol previously established in our laboratory. The purification was carried out by affinity chromatography on a Ni-NTA Agarose column (Qiagen[…] Cat. No. 30210). […] The reaction was performed in triplicate, initiated by adding 195 μL of reaction buffer to 5 μL of HsDHODH protein solution for a final concentration of 20 nM enzyme. As a blank, 195 μL of reaction buffer was added to 5 μL of Buffer A. The reaction was monitored at 610 nm every 3 s over 60 s. As a control, 5 μL of enzyme was added to 195 μL of reaction medium without compound. Enzymatic velocity was calculated, and the percentage of relative enzymatic activity was determined relative to the control.

[5] = test system: Leishmania braziliensis promastigotes; test: Leishmanicidal activity, promastigote growth (SYBR Green, 72 h); format: cell-based, Leishmania (V.) braziliensis (MHOM/BR/1975/M2904); conditions: Leishmania braziliensis, L. braziliensis promastigotes, max 200 μM
Description: The cultures were adjusted to 4 × 10^6 parasites per mL, and 50 μL of each culture was added on a test plate with 384 wells (Corning, #CLS3658), along with the controls and compounds to be tested. Previously diluted compounds in DMSO were added to plates in decreasing concentrations, with a maximum concentration of 200 μM. Parasites were exposed to a final concentration of DMSO in various dilutes (final = 0.5%), and the culture medium was used as the control for the experiment. […] After adding the lysis buffer, the plates were incubated in the dark for 2 h with gentle shaking. The readings were done using a SpectraMax M3 reader (excitation at 485 nm and emission at 535 nm).

[6] = 0 h, pH 8.15, read-out: LbDHODH Activity±SD (%)
[7] = 4 h, pH 8.15, read-out: LbDHODH Activity±SD (%)
[8] = IC50 0 h, without preincubation
[9] = read-out: Single dose (0h) % activity
[10] = read-out: Single dose (4h) % activity

T1 sequence (E9AI53 entry or part of it): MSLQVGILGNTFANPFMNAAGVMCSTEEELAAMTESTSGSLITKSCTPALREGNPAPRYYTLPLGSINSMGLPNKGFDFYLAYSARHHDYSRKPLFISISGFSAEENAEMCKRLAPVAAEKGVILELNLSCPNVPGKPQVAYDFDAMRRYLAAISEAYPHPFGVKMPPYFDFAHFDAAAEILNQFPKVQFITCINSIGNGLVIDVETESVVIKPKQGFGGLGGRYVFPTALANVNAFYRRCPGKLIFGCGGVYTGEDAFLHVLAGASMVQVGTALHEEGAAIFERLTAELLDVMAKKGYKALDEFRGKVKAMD
T2 sequence (Q02127 whole entry): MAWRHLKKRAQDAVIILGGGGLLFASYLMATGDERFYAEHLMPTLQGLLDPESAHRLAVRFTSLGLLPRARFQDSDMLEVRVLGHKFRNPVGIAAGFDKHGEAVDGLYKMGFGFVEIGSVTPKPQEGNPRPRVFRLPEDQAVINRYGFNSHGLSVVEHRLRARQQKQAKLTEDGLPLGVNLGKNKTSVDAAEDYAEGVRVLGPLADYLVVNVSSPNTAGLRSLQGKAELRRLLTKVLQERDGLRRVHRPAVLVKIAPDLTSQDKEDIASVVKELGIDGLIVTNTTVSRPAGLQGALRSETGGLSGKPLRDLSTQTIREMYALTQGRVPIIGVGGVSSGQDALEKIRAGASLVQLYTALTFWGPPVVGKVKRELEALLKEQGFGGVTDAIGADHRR

O=C1NC(=O)C(=Cc2ccccc2)C(=O)N1 [2a, 5-Benzylidenepyrimidine-2,4,6(1H,3H,5H)-trione] showed a CC50 at 72 h [1] of over 200 µM, an activity at 0.195312 µM [2, 6] of 108 ± 9% and an activity at 0.390625 µM [2, 6] of 106 ± 13%. The activity at 0.78125 µM [2, 6] was 110 ± 8%, the activity at 1.5625 µM [2, 6] was 103 ± 8% and the activity at 3.125 µM [2, 6] was 106 ± 8%. It also gave an activity at 6.25 µM [2, 6] of 88 ± 10%, an activity at 12.5 µM [2, 6] of 73 ± 9% and an activity at 25 µM [2, 6] of 60 ± 9%. For the same molecule, the activity at 50 µM [2, 6] was 54 ± 9%, the activity at 100 µM [2, 6] was 36 ± 5% and the activity at 200 µM [2, 6] was 27 ± 9%. For the same molecule, the activity at 400 µM [2, 6] was 20 ± 2%, the activity at 0.195312 µM [2, 7] was 110 ± 16% and the activity at 0.390625 µM [2, 7] was 92 ± 13%. For the same molecule, the activity at 0.78125 µM [2, 7] was 91 ± 6%, the activity at 1.5625 µM [2, 7] was 84 ± 15% and the activity at 3.125 µM [2, 7] was 74 ± 10%. It also gave an activity at 6.25 µM [2, 7] of 54 ± 4%, an activity at 12.5 µM [2, 7] of 55 ± 5% and an activity at 25 µM [2, 7] of 44 ± 3%. The activity at 50 µM [2, 7] was 29 ± 10%, the activity at 100 µM [2, 7] was 21 ± 1% and the activity at 200 µM [2, 7] was 5 ± 1%. For the same molecule, the activity at 400 µM [2, 7] was 6 ± 2%, the IC50 [2, 8] was 56 ± 5 µM and the IC50 ([2]; IC50 4 h, 4-h preincubation) was 13 ± 2 µM. It also gave an activity at 100 µM [2, 9] of 11 ± 9%, an activity at 100 µM [2, 10] of 3.5 ± 0.2% and an inhibition at 100 µM [2] of 96.5%. For the same molecule, the Kobs ([3]; inhibitor 0.390625 µM) was 0.003884 ± 0.002 s⁻¹, the Kobs ([3]; inhibitor 0.78125 µM) was 0.003327 ± 0.002 s⁻¹ and the Kobs ([3]; inhibitor 1.5625 µM) was 0.003467 ± 0.002 s⁻¹. For the same molecule, the Kobs ([3]; inhibitor 3.125 µM) was 0.003356 ± 0.002 s⁻¹, the Kobs ([3]; inhibitor 6.25 µM) was 0.003415 ± 0.002 s⁻¹ and the Kobs ([3]; inhibitor 12.5 µM) was 0.003372 ± 0.002 s⁻¹. For the same molecule, the Kobs ([3]; inhibitor 25 µM) was 0.003515 ± 0.002 s⁻¹, the Kobs ([3]; inhibitor 50 µM) was 0.003742 ± 0.001 s⁻¹ and the Kobs ([3]; inhibitor 100 µM) was 0.004728 ± 0.001 s⁻¹. The Kobs ([3]; inhibitor 200 µM) was 0.006479 ± 0.003 s⁻¹, the kinact/KI ([3]; slope of kobs vs inhibitor concentration) was 17 M⁻¹ s⁻¹ and the activity at 100 µM [4, 9] was 87 ± 10%. It also gave an activity at 100 µM [4, 10] of 79 ± 8% and an EC50 [5] of over 200 µM.
In the case of O=C1NC(=O)C(=Cc2cccc(O)c2)C(=O)N1 [2g, 5-(3-Hydroxybenzylidene)pyrimidine-2,4,6(1H,3H,5H)-trione], the CC50 at 72 h [1] is reported as 76 ± 12 µM, the activity at 0.78125 µM [2, 6] is reported as 90 ± 9% and the activity at 1.5625 µM [2, 6] is reported as 106 ± 12%. It also gave an activity at 3.125 µM [2, 6] of 78 ± 13%, an activity at 6.25 µM [2, 6] of 106 ± 15% and an activity at 12.5 µM [2, 6] of 101 ± 10%. For the same molecule, the activity at 25 µM [2, 6] was 82 ± 17%, the activity at 50 µM [2, 6] was 63 ± 8% and the activity at 100 µM [2, 6] was 45 ± 5%. For the same molecule, the activity at 200 µM [2, 6] was 29 ± 3%, the activity at 400 µM [2, 6] was 21 ± 2% and the activity at 0.78125 µM [2, 7] was 88 ± 8%. For the same molecule, the activity at 1.5625 µM [2, 7] was 72 ± 9%, the activity at 3.125 µM [2, 7] was 77 ± 13% and the activity at 6.25 µM [2, 7] was 75 ± 10%. For the same molecule, the activity at 12.5 µM [2, 7] was 58 ± 5%, the activity at 25 µM [2, 7] was 36 ± 4% and the activity at 50 µM [2, 7] was 23 ± 3%. The activity at 100 µM [2, 7] was 12.1 ± 2%, the activity at 200 µM [2, 7] was 7.1 ± 2% and the activity at 400 µM [2, 7] was 5.4 ± 3%. It also gave an IC50 [2, 8] of 90 ± 10 µM, an IC50 ([2]; IC50 4 h, 4-h preincubation) of 13 ± 1 µM and an activity at 100 µM [2, 9] of 22 ± 4%. For the same molecule, the activity at 100 µM [2, 10] was 8 ± 2%, the inhibition at 100 µM [2] was 90 to 93% and the Kobs ([3]; inhibitor 0.390625 µM) was 0.003649 ± 0.003 s⁻¹. The Kobs ([3]; inhibitor 0.78125 µM) was 0.003674 ± 0.003 s⁻¹, the Kobs ([3]; inhibitor 1.5625 µM) was 0.00383 ± 0.002 s⁻¹ and the Kobs ([3]; inhibitor 3.125 µM) was 0.003621 ± 0.002 s⁻¹. For the same molecule, the Kobs ([3]; inhibitor 6.25 µM) was 0.003878 ± 0.002 s⁻¹, the Kobs ([3]; inhibitor 12.5 µM) was 0.004049 ± 0.002 s⁻¹ and the Kobs ([3]; inhibitor 25 µM) was 0.004549 ± 0.002 s⁻¹. It also gave a Kobs ([3]; inhibitor 50 µM) of 0.005211 ± 0.002 s⁻¹, a Kobs ([3]; inhibitor 100 µM) of 0.007035 ± 0.001 s⁻¹ and a Kobs ([3]; inhibitor 200 µM) of 0.01421 ± 0.003 s⁻¹. The Kobs ([3]; inhibitor 400 µM) was 0.01927 ± 0.006 s⁻¹, the activity at 100 µM [4, 9] was 101 ± 11% and the activity at 100 µM [4, 10] was 96 ± 9%. For the same molecule, the EC50 [5] was over 200 µM.

Source: paper PMC12481576, “Barbituric Acid Derivatives as Covalent Inhibitors of Leishmania braziliensis Dihydroorotate Dehydrogenase” (Journal of Medicinal Chemistry, 2025)
